Test results taken from BigSolDB 2.1.

SMILES: O=C(NC(Cc1cc(=O)[nH]c2ccccc12)C(=O)O)c1ccc(Cl)cc1 (stereo not given)
- solubility (mole fraction) (in PEG-400, 288.15 K): 0.00236
- solubility (mole fraction) (in PEG-400, 293.15 K): 0.0025
- solubility (mole fraction) (in PEG-400, 298.15 K): 0.00264
- solubility (mole fraction) (in PEG-400, 303.15 K): 0.00278
- solubility (mole fraction) (in PEG-400, 308.15 K): 0.00292
- solubility (mole fraction) (in acetone, 288.15 K): 1.01e-05
- solubility (mole fraction) (in acetone, 293.15 K): 1.2e-05
- solubility (mole fraction) (in acetone, 298.15 K): 1.43e-05
- solubility (mole fraction) (in acetone, 303.15 K): 1.7e-05
- solubility (mole fraction) (in acetone, 308.15 K): 2e-05
- solubility (mole fraction) (in acetonitrile, 288.15 K): 8.25e-07
- solubility (mole fraction) (in acetonitrile, 293.15 K): 1.07e-06
- solubility (mole fraction) (in acetonitrile, 298.15 K): 1.38e-06
- solubility (mole fraction) (in acetonitrile, 303.15 K): 1.74e-06
- solubility (mole fraction) (in acetonitrile, 308.15 K): 2.2e-06
- solubility (mole fraction) (in ethanol, 288.15 K): 7.58e-05
- solubility (mole fraction) (in ethanol, 293.15 K): 8.61e-05
- solubility (mole fraction) (in ethanol, 298.15 K): 9.68e-05
- solubility (mole fraction) (in ethanol, 303.15 K): 0.000109
- solubility (mole fraction) (in ethanol, 308.15 K): 0.000122
- solubility (mole fraction) (in ethyl acetate, 288.15 K): 1.91e-06
- solubility (mole fraction) (in ethyl acetate, 293.15 K): 2.21e-06
- solubility (mole fraction) (in ethyl acetate, 298.15 K): 2.56e-06
- solubility (mole fraction) (in ethyl acetate, 303.15 K): 2.94e-06
- solubility (mole fraction) (in ethyl acetate, 308.15 K): 3.38e-06
- solubility (mole fraction) (in glycerin, 288.15 K): 2.97e-06
- solubility (mole fraction) (in glycerin, 293.15 K): 3.45e-06
- solubility (mole fraction) (in glycerin, 298.15 K): 4.02e-06
- solubility (mole fraction) (in glycerin, 303.15 K): 4.63e-06
- solubility (mole fraction) (in glycerin, 308.15 K): 5.35e-06
- solubility (mole fraction) (in isopropanol, 288.15 K): 3.82e-05
- solubility (mole fraction) (in isopropanol, 293.15 K): 4.75e-05
- solubility (mole fraction) (in isopropanol, 298.15 K): 5.83e-05
- solubility (mole fraction) (in isopropanol, 303.15 K): 7.17e-05
- solubility (mole fraction) (in isopropanol, 308.15 K): 8.79e-05
- solubility (mole fraction) (in methanol, 288.15 K): 7.56e-05
- solubility (mole fraction) (in methanol, 293.15 K): 8.55e-05
- solubility (mole fraction) (in methanol, 298.15 K): 9.59e-05
- solubility (mole fraction) (in methanol, 303.15 K): 0.000107
- solubility (mole fraction) (in methanol, 308.15 K): 0.00012
- solubility (mole fraction) (in n-butanol, 288.15 K): 5.47e-05
- solubility (mole fraction) (in n-butanol, 293.15 K): 6.51e-05
- solubility (mole fraction) (in n-butanol, 298.15 K): 7.73e-05
- solubility (mole fraction) (in n-butanol, 303.15 K): 9.12e-05
- solubility (mole fraction) (in n-butanol, 308.15 K): 0.000107
- solubility (mole fraction) (in n-propanol, 288.15 K): 6.1e-05
- solubility (mole fraction) (in n-propanol, 293.15 K): 7.1e-05
- solubility (mole fraction) (in n-propanol, 298.15 K): 8.24e-05
- solubility (mole fraction) (in n-propanol, 303.15 K): 9.55e-05
- solubility (mole fraction) (in n-propanol, 308.15 K): 0.000109
- solubility (mole fraction) (in propylene glycol, 288.15 K): 0.000204
- solubility (mole fraction) (in propylene glycol, 293.15 K): 0.000224
- solubility (mole fraction) (in propylene glycol, 298.15 K): 0.000246
- solubility (mole fraction) (in propylene glycol, 303.15 K): 0.000268
- solubility (mole fraction) (in propylene glycol, 308.15 K): 0.000291
- solubility (mole fraction) (in water, 288.15 K): 5.17e-07
- solubility (mole fraction) (in water, 293.15 K): 6.74e-07
- solubility (mole fraction) (in water, 298.15 K): 8.69e-07
- solubility (mole fraction) (in water, 303.15 K): 1.12e-06
- solubility (mole fraction) (in water, 308.15 K): 1.43e-06
